From PubChem BioAssay AID1963865 (Molecular Pharmacology Branch, DTP, NCI, 2024)

System: KRAS PDC multicell spheroid viability
Assay: Anticancer human tumor 825966-067-R-J1-PDC patient-derived colon carcinoma cell line growth inhibition [KRAS2]
Details: for IC50: curve of first compound; for viability, T/C: stronger effect = lower value
How it was run: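 KRAS-mutant tumor cells were grown as spheroids with HUVEC endothelial cells and human MSCs as stroma. Targeted agents were tested alone and with KRAS pathway inhibitors. Doses started at or near clinical Cmax, or 10 microM, descending half-log.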

[1] = second compound 0.1 µM, first compound 0.0316 µM
[2] = second compound 0.1 µM, first compound 0.1 µM
[3] = second compound 0.1 µM, first compound 0.316 µM
[4] = second compound 0.1 µM, first compound 1 µM
[5] = second compound 0.1 µM, first compound 3.16 µM
[6] = second compound 0.1 µM, first compound 10 µM
[7] = second compound 0.316 µM, first compound 0.0316 µM
[8] = second compound 0.316 µM, first compound 0.1 µM
[9] = second compound 0.316 µM, first compound 0.316 µM
[10] = second compound 0.316 µM, first compound 1 µM
[11] = second compound 0.316 µM, first compound 3.16 µM
[12] = second compound 0.316 µM, first compound 10 µM
[13] = second compound 1 µM, first compound 0.0316 µM
[14] = second compound 1 µM, first compound 0.1 µM
[15] = second compound 1 µM, first compound 0.316 µM
[16] = second compound 1 µM, first compound 1 µM
[17] = second compound 1 µM, first compound 3.16 µM
[18] = second compound 1 µM, first compound 10 µM
[19] = second compound 3.16 µM, first compound 0.0316 µM
[20] = second compound 3.16 µM, first compound 0.1 µM
[21] = second compound 3.16 µM, first compound 0.316 µM
[22] = second compound 3.16 µM, first compound 1 µM
[23] = second compound 3.16 µM, first compound 3.16 µM
[24] = second compound 3.16 µM, first compound 10 µM
[25] = second compound 10 µM, first compound 0.0316 µM
[26] = second compound 10 µM, first compound 0.1 µM
[27] = second compound 10 µM, first compound 0.316 µM
[28] = second compound 10 µM, first compound 1 µM
[29] = second compound 10 µM, first compound 3.16 µM
[30] = second compound 10 µM, first compound 10 µM
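Also: spheroids exposed to compounds for 7 days.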
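For viability, T/C in this document: 100% = DMSO vehicle control viability.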

Compound | IC50 (second compound 0.1 µM) [µM] | IC50 (second compound 0.316 µM) [µM] | IC50 (second compound 1 µM) [µM] | IC50 (second compound 3.16 µM) [µM] | IC50 (second compound 10 µM) [µM] | viability, T/C [1] [%] | viability, T/C [2] [%] | viability, T/C [3] [%] | viability, T/C [4] [%] | viability, T/C [5] [%] | viability, T/C [6] [%] | viability, T/C [7] [%] | viability, T/C [8] [%] | viability, T/C [9] [%] | viability, T/C [10] [%] | viability, T/C [11] [%] | viability, T/C [12] [%] | viability, T/C [13] [%] | viability, T/C [14] [%] | viability, T/C [15] [%] | other results
COc1cc(Nc2ncc3c(n2)-c2ccc(Cl)cc2C(c2c(F)cccc2OC)=NC3)ccc1C(=O)O + CC1OCC2(CCN(c3cnc(Sc4ccnc(N)c4Cl)c(N)n3)CC2)C1N | > 10 | > 10 | > 10 | > 10 | < 0.0316 | 132 | 144 | 125 | 154 | 154 | 135 | 127 | 111 | 147 | 143 | 154 | 133 | 129 | 145 | 141 | viability, T/C [16]: 122%; viability, T/C [17]: 119%; viability, T/C [18]: 103%; viability, T/C [19]: 64.6%; viability, T/C [20]: 127%; viability, T/C [21]: 107%; viability, T/C [22]: 74.1%; viability, T/C [23]: 101%; viability, T/C [24]: 123%; viability, T/C [25]: 14.9%; viability, T/C [26]: 10.9%; viability, T/C [27]: 22%; viability, T/C [28]: 20.2%; viability, T/C [29]: 18.5%; viability, T/C [30]: 39.6%
COc1cc2nccc(Oc3ccc(NC(=O)C4(C(=O)Nc5ccc(F)cc5)CC4)cc3)c2cc1OC + CC1OCC2(CCN(c3cnc(Sc4ccnc(N)c4Cl)c(N)n3)CC2)C1N | 1.61 | 1.71 | 1.69 | 1.61 | < 0.0316 | 89.8 | 105 | 94.7 | 79.9 | 7.16 | 8.74 | 97 | 102 | 85.8 | 87.1 | 5.92 | 10 | 109 | 98.1 | 78.6 | viability, T/C [16]: 85.7%; viability, T/C [17]: 7.28%; viability, T/C [18]: 5.65%; viability, T/C [19]: 83.5%; viability, T/C [20]: 87%; viability, T/C [21]: 90.3%; viability, T/C [22]: 81.6%; viability, T/C [23]: 4.94%; viability, T/C [24]: 4.14%; viability, T/C [25]: 45.5%; viability, T/C [26]: 48.5%; viability, T/C [27]: 43.4%; viability, T/C [28]: 23.1%; viability, T/C [29]: 1.1%; viability, T/C [30]: 0.8%
O=C(c1cc(Cc2n[nH]c(=O)c3ccccc23)ccc1F)N1CCN(C(=O)C2CC2)CC1 + CC1OCC2(CCN(c3cnc(Sc4ccnc(N)c4Cl)c(N)n3)CC2)C1N | > 10 | > 10 | > 10 | > 10 | 0.985 | 78.2 | 67.3 | 82 | 71.1 | 80.6 | 81.4 | 79.2 | 76.2 | 92.6 | 67.6 | 85 | 86.6 | 77.8 | 91.5 | 75.7 | viability, T/C [16]: 68%; viability, T/C [17]: 62.5%; viability, T/C [18]: 82.2%; viability, T/C [19]: 105%; viability, T/C [20]: 109%; viability, T/C [21]: 95.1%; viability, T/C [22]: 102%; viability, T/C [23]: 102%; viability, T/C [24]: 78.1%; viability, T/C [25]: 104%; viability, T/C [26]: 89.2%; viability, T/C [27]: 77.5%; viability, T/C [28]: 54.9%; viability, T/C [29]: 17.4%; viability, T/C [30]: 17.6%
